Measured values reported in ChEMBL document CHEMBL4354801, “Design, Synthesis, and Structure-Activity Relationships of 1,2,3-Triazole Benzenesulfonamides as New Selective Leucine-Zipper and Sterile-α Motif Kinase (ZAK) Inhibitors” (J Med Chem, 2020).
pIC50, pKd: −log10 of the molar value. Blank lines part the entries; values can stand above or below the compound they belong to.

What was measured:
[1] = molecular target: Serine/threonine-protein kinase B-raf (Homo sapiens, UniProt P15056, V600E); test: Inhibition of recombinant human B-RAF V600E mutant using Ser/Thr3 as substrate after 1 hr by FRET-based Z'-Lyte assay
Serine/threonine-protein kinase B-raf, sequence (P15056 2-766 V600E limits assumed): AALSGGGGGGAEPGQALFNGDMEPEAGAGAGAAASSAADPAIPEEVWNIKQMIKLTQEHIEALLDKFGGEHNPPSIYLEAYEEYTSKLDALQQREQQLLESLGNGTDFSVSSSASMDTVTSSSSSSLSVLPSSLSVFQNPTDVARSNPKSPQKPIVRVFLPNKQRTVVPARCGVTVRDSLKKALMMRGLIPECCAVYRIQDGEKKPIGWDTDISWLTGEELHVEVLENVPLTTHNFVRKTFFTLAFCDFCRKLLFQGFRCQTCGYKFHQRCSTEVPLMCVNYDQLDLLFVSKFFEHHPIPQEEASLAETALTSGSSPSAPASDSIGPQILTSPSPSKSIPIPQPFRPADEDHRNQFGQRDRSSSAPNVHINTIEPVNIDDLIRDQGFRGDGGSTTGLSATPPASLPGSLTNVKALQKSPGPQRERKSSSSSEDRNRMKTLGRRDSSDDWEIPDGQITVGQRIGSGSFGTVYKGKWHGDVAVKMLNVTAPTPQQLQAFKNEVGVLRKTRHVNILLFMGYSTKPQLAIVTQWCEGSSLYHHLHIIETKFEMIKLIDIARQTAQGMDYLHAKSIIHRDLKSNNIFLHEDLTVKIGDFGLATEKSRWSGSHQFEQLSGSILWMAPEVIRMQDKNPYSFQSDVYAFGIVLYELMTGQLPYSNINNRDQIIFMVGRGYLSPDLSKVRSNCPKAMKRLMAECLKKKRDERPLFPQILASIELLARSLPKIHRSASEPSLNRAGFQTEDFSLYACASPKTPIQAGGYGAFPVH

[2] = molecular target: T1, Mitogen-activated protein kinase kinase kinase 20 (Homo sapiens, UniProt Q9NYL2); test: Inhibition of N-terminal GST-tagged recombinant human full-length ZAK expressed in baculovirus infected Sf9 insect cells using MBP as substrate after 30 mins by ADP-Glo assay
T1 sequence (Q9NYL2 whole entry, the tested form may be a part): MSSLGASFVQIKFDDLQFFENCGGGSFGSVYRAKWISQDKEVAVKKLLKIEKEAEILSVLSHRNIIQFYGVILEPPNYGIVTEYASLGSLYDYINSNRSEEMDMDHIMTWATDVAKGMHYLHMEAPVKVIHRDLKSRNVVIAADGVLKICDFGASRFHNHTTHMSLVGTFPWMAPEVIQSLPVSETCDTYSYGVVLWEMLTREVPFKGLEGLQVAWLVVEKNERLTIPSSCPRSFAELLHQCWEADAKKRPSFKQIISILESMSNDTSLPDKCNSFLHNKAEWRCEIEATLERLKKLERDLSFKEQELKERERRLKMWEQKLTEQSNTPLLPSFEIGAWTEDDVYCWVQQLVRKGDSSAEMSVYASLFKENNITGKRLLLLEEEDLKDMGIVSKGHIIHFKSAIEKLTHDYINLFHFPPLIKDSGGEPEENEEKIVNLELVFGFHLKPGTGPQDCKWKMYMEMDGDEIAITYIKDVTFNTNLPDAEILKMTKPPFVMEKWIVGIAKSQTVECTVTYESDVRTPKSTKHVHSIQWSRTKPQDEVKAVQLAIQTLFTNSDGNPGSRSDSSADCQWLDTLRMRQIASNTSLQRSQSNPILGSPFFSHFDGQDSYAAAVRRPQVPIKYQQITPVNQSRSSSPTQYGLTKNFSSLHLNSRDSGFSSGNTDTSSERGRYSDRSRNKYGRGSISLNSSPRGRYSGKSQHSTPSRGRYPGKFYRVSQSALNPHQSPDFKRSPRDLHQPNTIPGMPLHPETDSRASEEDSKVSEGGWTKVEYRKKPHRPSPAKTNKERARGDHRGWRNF

[3] = molecular target: LIM domain kinase 2 (Homo sapiens, UniProt P53671); test: Binding affinity to human LIMK2
LIM domain kinase 2, sequence (P53671 whole entry, the tested form may be a part): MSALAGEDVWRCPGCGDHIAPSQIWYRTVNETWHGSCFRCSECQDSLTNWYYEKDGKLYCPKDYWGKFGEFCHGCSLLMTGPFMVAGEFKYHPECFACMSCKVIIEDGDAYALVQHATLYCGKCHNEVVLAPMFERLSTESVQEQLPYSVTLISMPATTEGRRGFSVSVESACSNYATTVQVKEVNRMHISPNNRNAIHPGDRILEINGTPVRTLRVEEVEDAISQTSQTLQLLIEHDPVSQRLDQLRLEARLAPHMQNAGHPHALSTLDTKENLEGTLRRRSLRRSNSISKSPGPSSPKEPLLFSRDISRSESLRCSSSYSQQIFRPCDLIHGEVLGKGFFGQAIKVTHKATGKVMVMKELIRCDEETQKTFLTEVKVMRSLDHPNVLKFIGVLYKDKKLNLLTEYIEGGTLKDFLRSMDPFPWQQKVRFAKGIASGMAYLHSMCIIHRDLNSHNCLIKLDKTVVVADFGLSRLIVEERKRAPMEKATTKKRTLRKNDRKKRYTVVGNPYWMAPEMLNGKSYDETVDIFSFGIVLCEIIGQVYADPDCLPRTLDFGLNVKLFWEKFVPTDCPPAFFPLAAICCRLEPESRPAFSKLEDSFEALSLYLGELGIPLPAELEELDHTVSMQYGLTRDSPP

[4] = Cmax in Sprague-Dawley rat at 10 mg/kg, po by HPLC/MS analysis; format: ADME, organism-based; set-up: dose 10 mg/kg, route oral; settings: in vivo
[5] = molecular target: Tyrosine-protein kinase Blk (Homo sapiens, UniProt P51451); test: Binding affinity to human BLK
Tyrosine-protein kinase Blk, sequence (P51451 whole entry): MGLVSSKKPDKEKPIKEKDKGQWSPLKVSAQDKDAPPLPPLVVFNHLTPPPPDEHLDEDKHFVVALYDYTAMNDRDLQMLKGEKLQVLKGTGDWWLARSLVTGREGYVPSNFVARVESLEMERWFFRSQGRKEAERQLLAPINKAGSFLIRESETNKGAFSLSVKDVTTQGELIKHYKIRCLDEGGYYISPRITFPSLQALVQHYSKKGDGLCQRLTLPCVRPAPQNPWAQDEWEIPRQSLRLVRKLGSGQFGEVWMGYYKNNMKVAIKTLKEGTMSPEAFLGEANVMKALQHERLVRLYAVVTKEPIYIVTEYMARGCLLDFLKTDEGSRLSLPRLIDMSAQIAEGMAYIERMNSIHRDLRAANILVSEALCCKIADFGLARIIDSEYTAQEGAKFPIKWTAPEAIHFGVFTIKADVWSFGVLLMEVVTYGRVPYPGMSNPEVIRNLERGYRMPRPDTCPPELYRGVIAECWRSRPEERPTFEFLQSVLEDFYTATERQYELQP

[6] = molecular target: Receptor-type tyrosine-protein kinase FLT3 (Homo sapiens, UniProt P36888, F691L); test: Binding affinity to human FLT3 F691L mutant
[7] = system: Rattus norvegicus; test: Anti-hypertrophic cardiomyopathy activity in SHR rat assessed as whole heart weight level elevation at 2.5 mg/kg, po once daily for 8 weeks (reference value: 1.23 +/- 0.006 g); format: functional
[8] = Half life in Sprague-Dawley rat at 10 mg/kg, po by HPLC/MS analysis; format: ADME, organism-based; settings: in vivo
[9] = molecular target: LIM domain kinase 1 (Homo sapiens, UniProt P53667); test: Binding affinity to human LIMK1
LIM domain kinase 1, sequence (P53667 whole entry, the tested form may be a part): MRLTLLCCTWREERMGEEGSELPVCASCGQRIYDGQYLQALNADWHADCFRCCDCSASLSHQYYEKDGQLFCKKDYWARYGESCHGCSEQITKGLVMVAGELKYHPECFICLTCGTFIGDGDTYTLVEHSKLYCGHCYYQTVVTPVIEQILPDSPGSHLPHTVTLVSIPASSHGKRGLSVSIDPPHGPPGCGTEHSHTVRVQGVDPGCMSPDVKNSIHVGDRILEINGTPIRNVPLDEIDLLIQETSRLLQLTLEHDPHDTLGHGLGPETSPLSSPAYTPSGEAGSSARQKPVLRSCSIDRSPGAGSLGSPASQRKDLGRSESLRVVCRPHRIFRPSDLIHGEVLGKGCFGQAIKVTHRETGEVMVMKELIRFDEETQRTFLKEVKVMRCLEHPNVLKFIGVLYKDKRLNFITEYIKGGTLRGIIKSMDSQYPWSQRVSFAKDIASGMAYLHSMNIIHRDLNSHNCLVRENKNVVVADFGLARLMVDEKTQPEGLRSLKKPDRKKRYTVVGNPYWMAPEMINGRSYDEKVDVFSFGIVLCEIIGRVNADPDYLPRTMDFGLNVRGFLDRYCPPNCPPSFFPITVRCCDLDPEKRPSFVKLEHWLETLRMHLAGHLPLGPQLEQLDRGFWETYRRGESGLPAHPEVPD

[10] = molecular target: Tyrosine-protein kinase Lck (Homo sapiens, UniProt P06239); test: Binding affinity to human LCK
[11] = molecular target: T2, Tyrosine-protein kinase ABL1 (Homo sapiens, UniProt P00519); test: Inhibition of human ABL1
T2 sequence (P00519 whole entry): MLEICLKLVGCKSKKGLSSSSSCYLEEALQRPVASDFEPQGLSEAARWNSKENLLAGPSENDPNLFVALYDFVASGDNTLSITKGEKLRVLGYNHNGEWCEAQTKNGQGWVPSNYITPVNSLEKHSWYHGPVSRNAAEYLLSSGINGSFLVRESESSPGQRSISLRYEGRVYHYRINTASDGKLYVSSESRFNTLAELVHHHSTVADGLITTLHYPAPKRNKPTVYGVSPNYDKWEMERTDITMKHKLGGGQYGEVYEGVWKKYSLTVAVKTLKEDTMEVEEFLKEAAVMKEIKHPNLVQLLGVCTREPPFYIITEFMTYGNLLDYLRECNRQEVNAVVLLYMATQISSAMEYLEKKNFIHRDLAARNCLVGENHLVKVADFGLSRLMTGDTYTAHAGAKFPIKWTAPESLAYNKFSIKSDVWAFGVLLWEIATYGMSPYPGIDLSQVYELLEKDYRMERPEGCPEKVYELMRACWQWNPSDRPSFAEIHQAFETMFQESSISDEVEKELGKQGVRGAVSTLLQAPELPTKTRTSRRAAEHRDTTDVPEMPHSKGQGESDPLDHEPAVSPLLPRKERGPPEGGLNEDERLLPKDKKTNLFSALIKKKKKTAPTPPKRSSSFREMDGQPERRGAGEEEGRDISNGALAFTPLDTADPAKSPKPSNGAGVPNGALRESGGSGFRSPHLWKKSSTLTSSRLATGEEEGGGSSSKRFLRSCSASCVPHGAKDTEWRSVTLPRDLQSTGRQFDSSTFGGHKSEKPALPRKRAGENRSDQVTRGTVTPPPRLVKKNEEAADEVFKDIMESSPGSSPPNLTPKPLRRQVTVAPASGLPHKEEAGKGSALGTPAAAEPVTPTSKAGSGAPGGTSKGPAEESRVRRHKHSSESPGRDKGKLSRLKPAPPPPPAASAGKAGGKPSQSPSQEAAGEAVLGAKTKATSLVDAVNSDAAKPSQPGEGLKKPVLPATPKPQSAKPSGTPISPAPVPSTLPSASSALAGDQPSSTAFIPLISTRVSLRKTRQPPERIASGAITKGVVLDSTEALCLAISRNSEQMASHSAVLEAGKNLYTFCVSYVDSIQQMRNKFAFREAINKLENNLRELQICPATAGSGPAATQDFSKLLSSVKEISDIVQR

[12] = AUC (0 to infinity) in Sprague-Dawley rat at 2.5 mg/kg, iv by HPLC/MS analysis; format: ADME, organism-based; set-up: dose 2.5 mg/kg, route intravenous, time infinity; settings: in vivo
[13] = AUC (0 to t) in Sprague-Dawley rat at 10 mg/kg, po by HPLC/MS analysis; format: ADME, organism-based; settings: in vivo
[14] = Cmax in Sprague-Dawley rat at 2.5 mg/kg, iv by HPLC/MS analysis; format: ADME, organism-based; set-up: dose 2.5 mg/kg, route intravenous; settings: in vivo
[15] = Oral bioavailability in Sprague-Dawley rat at 10 mg/kg by HPLC/MS analysis; format: ADME, organism-based; settings: in vivo
[16] = Clearance in Sprague-Dawley rat at 2.5 mg/kg, iv by HPLC/MS analysis; format: ADME, organism-based; settings: in vivo
[17] = AUC (0 to infinity) in Sprague-Dawley rat at 10 mg/kg, po by HPLC/MS analysis; format: ADME, organism-based; set-up: dose 10 mg/kg, route oral, time infinity; settings: in vivo
[18] = system: Rattus norvegicus; test: Anti-hypertrophic cardiomyopathy activity in SHR rat assessed as whole heart weight level elevation at 10 mg/kg, po once daily for 8 weeks (reference value: 1.23 +/- 0.006 g); format: functional
[19] = molecular target: Receptor-interacting serine/threonine-protein kinase 2 (Homo sapiens, UniProt O43353); test: Binding affinity to human RIPK2
Receptor-interacting serine/threonine-protein kinase 2, sequence (O43353 whole entry): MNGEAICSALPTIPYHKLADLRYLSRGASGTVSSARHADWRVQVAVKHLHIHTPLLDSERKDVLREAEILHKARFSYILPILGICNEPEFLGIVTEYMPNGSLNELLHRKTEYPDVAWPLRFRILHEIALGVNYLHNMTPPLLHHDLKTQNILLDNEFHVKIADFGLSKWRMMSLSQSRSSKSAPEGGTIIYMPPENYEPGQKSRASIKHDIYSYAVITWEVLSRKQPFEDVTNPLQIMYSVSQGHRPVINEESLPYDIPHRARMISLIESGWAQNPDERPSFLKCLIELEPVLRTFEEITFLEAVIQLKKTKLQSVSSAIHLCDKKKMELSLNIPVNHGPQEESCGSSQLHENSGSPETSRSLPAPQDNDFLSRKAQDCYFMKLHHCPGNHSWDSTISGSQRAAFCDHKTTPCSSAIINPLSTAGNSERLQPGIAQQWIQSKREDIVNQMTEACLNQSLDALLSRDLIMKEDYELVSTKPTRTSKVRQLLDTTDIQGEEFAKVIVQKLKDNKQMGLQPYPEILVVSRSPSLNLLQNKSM

[20] = AUC (0 to t) in Sprague-Dawley rat at 2.5 mg/kg, iv by HPLC/MS analysis; format: ADME, organism-based; settings: in vivo
[21] = system: Rattus norvegicus; test: Anti-hypertrophic cardiomyopathy activity in SHR rat assessed as left ventricular weight level elevation at 2.5 mg/kg, po once daily for 8 weeks (reference value: 0.89 +/- 0.005 g); format: functional
[22] = molecular target: T1, Mitogen-activated protein kinase kinase kinase 20; test: Binding affinity to ATP-binding site of human ZAK expressed in Escherichia coli by active site-dependent competition binding assay
[23] = molecular target: T1, Mitogen-activated protein kinase kinase kinase 20; test: Binding affinity to human ZAK
[24] = Effect on ZAKalpha protein expression in rat H9C2 cells by Western blot analysis
[25] = Half life in Sprague-Dawley rat at 2.5 mg/kg, iv by HPLC/MS analysis; format: ADME, organism-based; settings: in vivo
[26] = molecular target: T2, Tyrosine-protein kinase ABL1; test: Binding affinity to human ABL1
[27] = system: Rattus norvegicus; test: Anti-hypertrophic cardiomyopathy activity in SHR rat assessed as left ventricular weight level elevation at 10 mg/kg, po once daily for 8 weeks (reference value: 0.89 +/- 0.005 g); format: functional

- pIC50 [1]: < 6.00
- pIC50 [2]: 7.83
SMILES: COc1n[nH]c2ncc(C#Cc3c(F)ccc(NS(=O)(=O)c4cccc(Cl)c4)c3F)cc12

- pIC50 [1]: 6.07
- pIC50 [2]: 8.35
SMILES: COc1n[nH]c2ncc(-c3cn(-c4c(F)ccc(NS(=O)(=O)c5ccc6ccccc6c5)c4F)nn3)cc12

- pKd [3]: 7.20
- Cmax [4]: 16400 ng/mL
- pKd [5]: 6.72
- pKd [6]: 6.28
- half-life [8]: 1.7 h
- pKd [9]: 7.64
- pKd [10]: 6.80
- pIC50 [11]: 6.81
- AUC(0-inf) [12]: 27900 ng·h/mL
- AUC(0-t) [13]: 71600 ng·h/mL
- Cmax [14]: 34200 ng/mL
- bioavailability [15]: 65.3%
- clearance [16]: 1.53 mL/min/kg
- AUC(0-inf) [17]: 71800 ng·h/mL
- pKd [19]: 7.24
- AUC(0-t) [20]: 27400 ng·h/mL
- pIC50 [1]: < 6.00
- pKd [22]: 8.10
- pKd [23]: 8.10
- half-life [25]: 1.6 h
- pIC50 [2]: 8.40
- pKd [26]: 7.82
SMILES: COc1n[nH]c2ncc(-c3cn(-c4c(F)ccc(NS(=O)(=O)c5cccc(-c6ccccc6)c5)c4F)nn3)cc12
- Activity [7]: 1.18 g
- Activity [18]: 1.13 g
- Activity [21]: 0.82 g
- Activity [24]: Non-Toxic
- Activity [27]: 0.78 g

- pIC50 [1]: 6.34
- pIC50 [2]: 8.36
SMILES: COc1n[nH]c2ncc(-c3cn(-c4c(F)ccc(NS(=O)(=O)c5cccc(C)c5)c4F)nn3)cc12

- pIC50 [1]: < 6.00
- pIC50 [2]: 7.34
SMILES: Nc1ccc(-c2cn(-c3c(F)ccc(NS(=O)(=O)c4cccc(Cl)c4)c3F)nn2)cn1

- pIC50 [1]: < 6.00
- pIC50 [2]: 6.01
SMILES: COc1n[nH]c2ncc(-c3ncc(-c4c(F)ccc(NS(=O)(=O)c5cccc(Cl)c5)c4F)[nH]3)cc12

- pIC50 [1]: < 6.00
- pIC50 [2]: 7.54
SMILES: COc1n[nH]c2ncc(-c3nc(-c4c(F)ccc(NS(=O)(=O)c5cccc(Cl)c5)c4F)no3)cc12

- pIC50 [1]: 7.94
- pIC50 [2]: 7.27
SMILES: COc1n[nH]c2ncc(-c3cn(-c4c(F)ccc(NC(=O)c5cccc(Cl)c5)c4F)nn3)cc12

- pIC50 [1]: 6.36
- pIC50 [2]: 6.38
SMILES: COc1n[nH]c2ncc(-c3cn(-c4c(Cl)ccc(NS(=O)(=O)c5cccc(Cl)c5)c4Cl)nn3)cc12

The remaining lines, values behind:

SMILES: COc1n[nH]c2ncc(-c3cn(-c4c(F)ccc(NC(=O)Cc5cccc(Cl)c5)c4F)nn3)cc12
- pIC50 [1]: 7.08
- pIC50 [2]: 7.07

SMILES: COc1n[nH]c2ncc(-c3cn(-c4c(F)ccc(NS(=O)(=O)c5ccccc5)c4F)nn3)cc12
- pIC50 [1]: 7.41
- pIC50 [2]: 8.42

SMILES: COc1n[nH]c2ncc(-c3cn(-c4c(F)ccc(NS(=O)(=O)c5cccc(C(C)C)c5)c4F)nn3)cc12
- pIC50 [1]: 6.72
- pIC50 [2]: 8.16

SMILES: COc1n[nH]c2ncc(-c3nnc(-c4c(F)ccc(NS(=O)(=O)c5cccc(Cl)c5)c4F)o3)cc12
- pIC50 [1]: < 6.00
- pIC50 [2]: 7.20

SMILES: COc1n[nH]c2ncc(-c3cn(-c4cc(NS(=O)(=O)c5cccc(Cl)c5)ccc4F)nn3)cc12
- pIC50 [1]: 6.48
- pIC50 [2]: 8.24

SMILES: COc1n[nH]c2ncc(-c3cn(-c4c(F)ccc(NS(=O)(=O)c5cccc6ccccc56)c4F)nn3)cc12
- pIC50 [1]: 6.90
- pIC50 [2]: 8.38

SMILES: COc1n[nH]c2ncc(-c3cn(-c4cccc(NS(=O)(=O)c5cccc(Cl)c5)c4)nn3)cc12
- pIC50 [1]: < 6.00
- pIC50 [2]: 7.61

SMILES: COc1n[nH]c2ncc(-c3cn(-c4c(F)ccc(NS(=O)(=O)c5cccc(Cl)c5)c4F)nn3)cc12
- pIC50 [1]: 6.70
- pIC50 [2]: 8.72

SMILES: COc1cccc(S(=O)(=O)Nc2ccc(F)c(-n3cc(-c4cnc5[nH]nc(OC)c5c4)nn3)c2F)c1
- pIC50 [1]: 6.57
- pIC50 [2]: 8.64

SMILES: COc1n[nH]c2ncc(-c3cn(-c4c(F)ccc(NC(=O)Nc5cccc(Cl)c5)c4F)nn3)cc12
- pIC50 [1]: 7.29
- pIC50 [2]: 7.28

SMILES: COc1n[nH]c2ncc(-c3cn(-c4c(F)ccc(NS(=O)(=O)c5cccc(Br)c5)c4F)nn3)cc12
- pIC50 [1]: 6.56
- pIC50 [2]: 8.68

SMILES: Nc1ncc(-c2cn(-c3c(F)ccc(NS(=O)(=O)c4cccc(Cl)c4)c3F)nn2)cn1
- pIC50 [1]: < 6.00
- pIC50 [2]: 8.05

SMILES: COc1n[nH]c2ncc(-c3cn(-c4cccc(NS(=O)(=O)c5cccc(Cl)c5)c4F)nn3)cc12
- pIC50 [1]: 6.10
- pIC50 [2]: 8.52

SMILES: COc1n[nH]c2ncc(-c3cn(-c4c(F)ccc(NS(=O)(=O)c5cccc(C#N)c5)c4F)nn3)cc12
- pIC50 [1]: 6.33
- pIC50 [2]: 8.48
